Results published in patent US3962317A, “D-3,6-Diaminohexanoic acid 2-(carboxymethyl)-2-methylhydrazide, process of preparing and intermediates of said process” (priority 1974, dated 1976).
In brackets after ≈: the same amount, converted by molar mass.

Tests used:
[1] = test system: Pseudomonas aeruginosa ATCC 10145; assay: Zone of inhibition, standard agar well diffusion assay; assay type: cell-based
Protocol: (§1) In this assay, the minimal inhibitory concentration (MIC) was determined by using twofold dilutions of the compound in nutrient agar. One ml. of each dilution was placed in a sterile Petri dish; 9 ml. of nutrient agar was added to each dish. Five hour cultures of the indicated organism in Trypticase Soy Broth were diluted 10^^-2 in nutrient broth. This dilution of each culture was transferred to the surface of the plates by using a Steers replicating device. […] The MIC of D-3,6-diaminohexanoic acid 2-(carboxymethyl)-2 -methylhydrazide against the indicated organisms are set forth in Table I below.
(§2) In another representative operation, the standard agar well diffusion assay was repeated with D-3,6-diaminohexanoic acid 2-(carboxymethyl)-2-methylhydrazide except that after incubation the zone of inhibition against the indicated organism is millimeters was determined.

Candida albicans E 83 = assay: as above; assay type: cell-based
Protocol: as §1, §2

[2] = test system: Trichophyton tonsurans NIH 662; assay: as above; assay type: cell-based
Protocol: as §1, §2

Escherichia coli 311 [3] = assay: as above; assay type: cell-based
Protocol: as §1, §2

[4] = test system: Enterobacter aerogenes 75; assay: as above; assay type: cell-based
Protocol: as §1, §2

[5] = test system: Proteus vulgaris ATCC 9484; assay: as above; assay type: cell-based
Protocol: as §1, §2

Klebsiella pneumoniae AD [6] = assay: as above; assay type: cell-based
Protocol: as §1, §2

[7] = test system: Mycobacterium smegmatis ATCC 606; assay: as above; assay type: cell-based
Protocol: as §1, §2

[8] = test system: Cryptococcus neoformans E 183; assay: as above; assay type: cell-based
Protocol: as §1, §2

[9] = test system: Trichophyton mentagrophytes E11; assay: as above; assay type: cell-based
Protocol: as §1, §2

[10] = test system: Microsporum canis ATCC 10214; assay: as above; assay type: cell-based
Protocol: as §1, §2

[11] = test system: Staphylococcus aureus Rose ATCC 14154; assay: as above; assay type: cell-based
Protocol: as §1, §2

[12] = test system: Salmonella typhosa ATCC 6539; assay: as above; assay type: cell-based
Protocol: as §1, §2

Escherichia coli 311 [13] = assay: Systemic lethal infection in mice, Escherichia coli 311; assay type: in vivo, Charles River CD1 female mice; settings: for Alive/Total Mice Tested 7 Days After Infection: immediately after infection
Protocol: (§3) The infections were administered to the mice as follows:
Escherichia coli 311: intraperitoneal infection of a lethal dose consisting of 0.5 ml. of a 10^^-3 trypticase soy dilution of a 5 hour trypticase soy broth culture.
(§4) The D-3,6-diaminohexanoic acid 2-(carboxymethyl)-2-methylhydrazide was administered as follows:
Escherichia coli 311: 0.5 ml. dose suspended in 0.2% aqueous agar was administered to groups of Charles River CD1 female mice, weighing 18-22 gm., immediately after infection at the levels indicated in Table III below.

[14] = test system: standard laboratory microorganisms; assay: Standard agar well diffusion assay against a variety of standard laboratory microorganisms; assay type: cell-based
[15] = test system: Enterobacter sp. K-1972-1; assay: MIC, agar dilution (called standard agar well diffusion assay); assay type: cell-based; settings: SP.K19721, nutrient agar, 37°C, 24 hours
Protocol: as §1

[16] = test system: Proteus mirabilis K-1972-12; assay: as above; assay type: cell-based; settings: K197212, nutrient agar, 37°C, 24 hours
Protocol: as §1

[17] = test system: Staphylococcus aureus Morton No. 1169; assay: as above; assay type: cell-based; settings: nutrient agar, 37°C, 24 hours
Protocol: as §1

[18] = test system: Shigella flexneri (2a) RB; assay: as above; assay type: cell-based; settings: nutrient agar, 37°C, 24 hours
Protocol: as §1

[19] = test system: Enterococcus (S. faecalis) Isenberg; assay: as above; assay type: cell-based; settings: nutrient agar, 37°C, 24 hours
Protocol: as §1

[20] = test system: Escherichia coli K-1972-1; assay: as above; assay type: cell-based; settings: K19721, nutrient agar, 37°C, 24 hours
Protocol: as §1

Serratia marcescens K132 = assay: as above; assay type: cell-based; settings: nutrient agar, 37°C, 24 hours
Protocol: as §1

[21] = test system: Serratia marcescens Finland; assay: as above; assay type: cell-based; settings: nutrient agar, 37°C, 24 hours
Protocol: as §1

[22] = test system: Salmonella enteritidis K-1972; assay: as above; assay type: cell-based; settings: Salmonella enterica, nutrient agar, 37°C, 24 hours
Protocol: as §1

[23] = test system: Escherichia coli K-1972-2; assay: as above; assay type: cell-based; settings: K19722, nutrient agar, 37°C, 24 hours
Protocol: as §1

[24] = test system: Proteus mirabilis No. 4361; assay: as above; assay type: cell-based; settings: nutrient agar, 37°C, 24 hours
Protocol: as §1

[25] = test system: Proteus mirabilis K-1972-16; assay: as above; assay type: cell-based; settings: K197216, nutrient agar, 37°C, 24 hours
Protocol: as §1

[26] = test system: Herellea vaginicola Hughes; assay: as above; assay type: cell-based; settings: nutrient agar, 37°C, 24 hours
Protocol: as §1

Klebsiella pneumoniae AD [27] = assay: as above; assay type: cell-based; settings: nutrient agar, 37°C, 24 hours
Protocol: as §1

[28] = test system: Salmonella typhimurium K-1972; assay: as above; assay type: cell-based; settings: Salmonella enterica, nutrient agar, 37°C, 24 hours
Protocol: as §1

Proteus vulgaris K-1972 = assay: as above; assay type: cell-based; settings: K1972, nutrient agar, 37°C, 24 hours
Protocol: as §1

[29] = test system: Herellea vaginicola Washington 885-863; assay: as above; assay type: cell-based; settings: nutrient agar, 37°C, 24 hours
Protocol: as §1

Escherichia coli No. 311 = assay: as above; assay type: cell-based; settings: nutrient agar, 37°C, 24 hours
Protocol: as §1

[30] = test system: Shigella flexneri (5) Citarella; assay: as above; assay type: cell-based; settings: nutrient agar, 37°C, 24 hours
Protocol: as §1

[31] = test system: Klebsiella pneumoniae K-1972-2; assay: as above; assay type: cell-based; settings: K19722, nutrient agar, 37°C, 24 hours
Protocol: as §1

[32] = test system: Pseudomonas aeruginosa PA7; assay: as above; assay type: cell-based; settings: nutrient agar, 37°C, 24 hours
Protocol: as §1

[33] = test system: Pseudomonas aeruginosa 12-4-4; assay: as above; assay type: cell-based; settings: 1244, nutrient agar, 37°C, 24 hours
Protocol: as §1

[34] = test system: Staphylococcus aureus Jackson No. 4; assay: as above; assay type: cell-based; settings: nutrient agar, 37°C, 24 hours
Protocol: as §1

Proteus mirabilis 4671 = assay: Systemic lethal infection in mice, Proteus mirabilis 4671; assay type: in vivo, Charles River CD1 female mice; settings: for Alive/Total Mice Tested 7 Days After Infection: 1 day prior to and immediately after infection
Protocol: as §3
Proteus mirabilis 4671: intraperitoneal injection of a lethal dose consisting of 0.5 ml. of a 10^^-1.6 trypticase soy dilution of a 5 hour trypticase soy broth culture.
as §4
Proteus mirabilis 4671: 0.5 ml. dose suspended in 0.2% aqueous agar was administered to groups of Charles River CD1 female mice, weighing 18-22 gm., 1 day prior to infection and then in a second dose immediately after infection at the levels indicated in Table III below.

CN(CC(=O)O)NC(=O)C[C@H](N)CCCN [D-3,6-diaminohexanoic acid 2-(carboxymethyl)-2-methylhydrazide]
Zone of Inhibition [1]: 50 mm. | Zone of Inhibition (Candida albicans E 83): 50 mm. | Zone of Inhibition [2]: 25 mm. | Zone of Inhibition (Escherichia coli 311 [3]): 25 mm. | Zone of Inhibition [4]: 50 mm. | Zone of Inhibition [5]: 25 mm. | Zone of Inhibition (Klebsiella pneumoniae AD [6]): 10 mm. | Zone of Inhibition [7]: 100 mm. | Zone of Inhibition [8]: 10 mm. | Zone of Inhibition [9]: 100 mm. | Zone of Inhibition [10]: 250 mm. | Zone of Inhibition [11]: 100 mm. | Zone of Inhibition [12]: 25 mm. | Alive/Total Mice Tested 7 Days After Infection (Escherichia coli 311 [13]; 4 mg./kg. subcutaneous): 0/5 | Alive/Total Mice Tested 7 Days After Infection (Escherichia coli 311 [13]; 8 mg./kg. subcutaneous): 0/5 | Alive/Total Mice Tested 7 Days After Infection (Escherichia coli 311 [13]; 16 mg./kg. subcutaneous): 0/5 | Alive/Total Mice Tested 7 Days After Infection (Escherichia coli 311 [13]; 32 mg./kg. subcutaneous): 3/5 | Alive/Total Mice Tested 7 Days After Infection (Escherichia coli 311 [13]; 64 mg./kg. subcutaneous): 5/5 | in vivo activity against systemic lethal infection (Escherichia coli 311 [13]; Escherichia coli infection in mice): controlled systemic lethal infections | antibacterial and antifungal activity in vitro [14]: broad-spectrum antibacterial and antifungal activity in vitro | MIC [15]: 32 µg/mL (≈ 138 µM) | MIC [16]: 64 µg/mL (≈ 276 µM) | MIC [17]: 32 µg/mL (≈ 138 µM) | MIC [18]: 4 µg/mL (≈ 17.2 µM) | MIC [19]: > 128 µg/mL | MIC [20]: 16 µg/mL (≈ 68.9 µM) | MIC (Serratia marcescens K132): 32 µg/mL (≈ 138 µM) | MIC [21]: 64 µg/mL (≈ 276 µM) | MIC [22]: 32 µg/mL (≈ 138 µM) | MIC [23]: 16 µg/mL (≈ 68.9 µM) | MIC [24]: 64 µg/mL (≈ 276 µM) | MIC [25]: 64 µg/mL (≈ 276 µM) | MIC [26]: 32 µg/mL (≈ 138 µM) | MIC (Klebsiella pneumoniae AD [27]): 4 µg/mL (≈ 17.2 µM) | MIC [28]: 32 µg/mL (≈ 138 µM) | MIC (Proteus vulgaris K-1972): 64 µg/mL (≈ 276 µM) | MIC [29]: 32 µg/mL (≈ 138 µM) | MIC (Escherichia coli No. 311): 16 µg/mL (≈ 68.9 µM) | MIC [30]: 64 µg/mL (≈ 276 µM) | MIC [31]: 32 µg/mL (≈ 138 µM) | MIC [32]: 64 µg/mL (≈ 276 µM) | MIC [33]: 64 µg/mL (≈ 276 µM) | MIC [34]: 64 µg/mL (≈ 276 µM) | Alive/Total Mice Tested 7 Days After Infection (Proteus mirabilis 4671; 64 mg./kg. subcutaneous): 5/5 | Alive/Total Mice Tested 7 Days After Infection (Proteus mirabilis 4671; 128 mg./kg. subcutaneous): 5/5 | Alive/Total Mice Tested 7 Days After Infection (Proteus mirabilis 4671; 256 mg./kg. subcutaneous): 5/5 | in vivo activity against systemic lethal infection (Proteus mirabilis 4671; Proteus mirabilis infection in mice): controlled systemic lethal infections
